4 molecules from US7074768B2, “Modified protein kinase A-specific oligonucleotides and methods of their use” (Idera Pharmaceuticals, Inc., priority 1995, dated 2006) can be followed below.

The test system of data set [1] is ZR75-1 human breast cancer cells. Briefly: Soft agar growth of ZR75-1 cells. In kind it is cell-based. As to the method: (§1) Cells (10^4 cells/well) were seeded in 0.5 ml of 0.3% Difco Noble agar (Difco, Detroit, Mich.) supplemented with complete culture medium. This suspension was layered over 0.5 ml of 0.8% agar-medium base layer in 24 multiwell cluster dishes (Becton Dickinson) and treated with various concentrations of docetaxel (day 0). […] Twelve days after the last treatment, cells were stained with nitroblue tetrazolium (Sigma) and colonies larger than 0.05 mm were counted.
as §1
Soft agar growth. Cells (10^4 cells/well) were seeded in 0.5 ml of 0.3% Difco Noble agar (Difco, Detroit, Mich.) supplemented with complete culture medium. This suspension was layered over 0.5 ml of 0.8% agar-medium base layer in 24 multiwell cluster dishes (Becton Dickinson) and treated with various concentrations of docetaxel (day 0). The HYB 165 was added after 12 hrs (day 1) and on day 3. Twelve days after the last treatment, cells were stained with nitroblue tetrazolium (Sigma) and colonies larger than 0.05 mm were counted.
Soft agar growth. Cells (10^4 cells/well) were seeded in 0.5 ml of 0.3% Difco Noble agar (Difco, Detroit, Mich.) supplemented with complete culture medium. This suspension was layered over 0.5 ml of 0.8% agar-medium base layer in 24 multiwell cluster dishes (Becton Dickinson) and treated with various concentrations of docetaxel (day 0). The HYB 508 was added after 12 hrs and on day 2, 3 and 4. After 12 days the cells were stained with nitroblue tetrazolium (Sigma) and colonies larger than 0.05 mm were counted.
Soft agar growth. Cells (10^4 cells/well) were seeded in 0.5 ml of 0.3% Difco Noble agar (Difco, Detroit, Mich.) supplemented with complete culture medium. […] After 12 days the cells were stained with nitroblue tetrazolium (Sigma) and colonies larger than 0.05 mm were counted.
Soft agar growth. Cells (10^4 cells/well) were seeded in 0.5 ml of 0.3% Difco Noble agar (Difco, Detroit, Mich.) supplemented with complete culture medium. This suspension was layered over 0.5 ml of 0.8% agar-medium base layer in 24 multiwell cluster dishes (Becton Dickinson) and treated with various concentrations of HYB 165 or HYB295 every 48 hours for three times. After 12 days the cells were stained with nitroblue tetrazolium (Sigma, St. Louis, Mo.) and colonies larger than 0.05 mm were counted.
Soft agar growth. Cells (10^4 cells/well) were seeded in 0.5 ml of 0.3% Difco Noble agar (Difco, Detroit, Mich.) supplemented with complete culture medium. This suspension was layered over 0.5 ml of 0.8% agar-medium base layer in 24 multiwell cluster dishes (Becton Dickinson) and treated with various concentrations of HYB 165 or HYB508 every 48 hours for three times. After 12 days the cells were stained with nitroblue tetrazolium (Sigma, St. Louis, Mo.) and colonies larger than 0.05 mm were counted.

Another data set concerns AR. Briefly: Histochemical analysis of GEO tumors: AR. Type of data set: in vivo. The settings on record: single agent, after two cycles. An excerpt: (§2) Tumor specimens from the different groups of mice were examined by histochemical analysis at different time points to evaluate the expression of a variety of biological parameters.
(§3) TGFα and AR are growth factors which bind to EGFR and control human colon cancer growth through autocrine and paracrine mechanisms (F. Ciardiello and G. Tortora, Clin. Cancer Res. 4:821–828 (1998); D. S. Salomon, Crit. Rev. Oncol. Hematol. 19:183–232 (1995)).

The test system of data set [2] is GEO human colon cancer cells. Briefly: Soft agar growth of GEO cells. Type of data set: cell-based. As to the method: Cells (10^4 cells/well) were seeded in 0.5 ml of 0.3% Difco Noble agar (Difco, Detroit, Mich.) supplemented with complete culture medium. This suspension was layered over 0.5 ml of 0.8% agar-medium base layer in 24 multiwell cluster dishes (Becton Dickinson) and treated with various concentrations of paclitaxel (day 0). The HYB 165 was added after 12 hrs (day 1) and on day 2, 3 and 4. 12 days after the last treatment, cells were stained with nitroblue tetrazolium (Sigma) and colonies larger than 0.05 mm were counted.

The subject of a further data set is TGFα. Briefly: Histochemical analysis of GEO tumors: TGFα. In kind it is in vivo. The settings on record: single agent, after two cycles.
From the text: as §2, §3

In data set [3] the test system is GEO colon cancer xenografts. Briefly: GEO colon cancer xenografts in nude mice (tumor growth, survival). Type of data set: in vivo. The settings on record: single agent. As to the method:
We investigated the antitumor activity of HYB 165 (AS RIα) in nude mice bearing GEO colon cancer xenografts, using either the intraperitoneal (i.p.) or the oral route of administration. When established GEO tumors of approximately […] were detectable, groups of 10 mice were treated i.p. with either HYB 165 or a control modified backbone oligonucleotide with a scrambled sequence, at 5 or 10 mg/kg/dose, daily on days 7 to 11 and 14 to 18. […] The control oligonucleotide produced no inhibition at 10 mg/kg/dose.
Following oral administration, modified backbone oligonucleotides (MBOs) are absorbed in the upper and lower part of the GI tract and distributed to major organs (S. Agrawal and R. Zhang, In: Antisense Research and Application, S. T. Crooke, ed.), Handbook of Experimental Pharmacology, Springer, Berlin, p. 525–543 (1998). Therefore, HYB 165 and the control oligonucleotide were administered to GEO tumor-bearing mice as described above, except that HYB 165 and the control oligonucleotide were administered orally.
On day 7 after tumor cell injection, one group of 10 mice was treated with taxol (20 mg/kg/dose, i.p.), and the treatment was repeated every 2 weeks (on day 21 and day 35) for a total of three cycles. Two other groups of mice were treated with either HYB 165 (AS RIα) or a control MBO with a scrambled sequence (10 mg/kg/dose, p.o.), daily for five days (days 8–12). Treatment was repeated every 2 weeks (days 22–26 and days 36–40) for a total of three cycles. Two more groups of mice were treated with taxol and either HYB 165 or the control MBO, administering the taxol (20 mg/kg/dose, i.p.) on day 7, followed by oral administration of either HYB 165 or the control MBO daily for five days (days 8–12). The sequential treatment was repeated with the same schedule every 2 weeks for a total of three cycles.

For a further data set, the system named is p27. Briefly: Histochemical analysis of GEO tumors: p27. Type of data set: in vivo. The settings on record: single agent. The source says:
Tumor specimens from the different groups of mice were examined by histochemical analysis at different time points to evaluate the expression of a variety of biological parameters. […] No other treatment was able to affect RIα expression.
Loda et al. (Nature Medicine 3:231–234 (1997)) discloses that the cyclin-dependent kinase (CDK) inhibitor p27 is […] related to cell entry into S phase and proliferation and that reduction of its expression correlates with poor prognosis in colon cancer patients.

Data set [4] has as its system Factor VIII related antigen. Briefly: Tumor-induced neovascularization (anti-Factor VIII related antigen immunohistochemistry). In kind it is in vivo. The settings on record: single agent, vs untreated mice or scramble MBO. The source says:
In recent years, the critical role of tumor-induced neovascularization in neoplastic development, progression and metastasis has been elucidated (J. I. Fokman, In: J. Mendelsohn et al., eds., The Molecular Basis of Cancer, pp 206–232, Philadelphia: W B Saunders (1995) . A reliable histologic estimate of novel blood vessels on tumor specimens is the microvessel count (MVC) in the most intense areas of neovascularization. In the present study, tumor-induced neovascularization was quantified by immunohistochemistry using an anti-Factor VIII related antigen monoclonal antibody (N. Weidner, Breast Cancer Res. Treat., 36:169–180 (1995)).

The subject of data set [5] is LS-174T human colon carcinoma cells. Briefly: LS-174T tumor growth and antisense treatment. In kind it is in vivo, athymic mice. The settings on record: single s.c. dose 1 mg per mouse, FIG. 1. The method, then: LS-174T human colon carcinoma cells (1×10^6 cells) were inoculated subcutaneously (s.c.) into the left flank of athymic mice. A single dose of RIα antisense hybrid (Oligo 165, SEQ ID NO:4), inverted hybrid (Oligo 166, SEQ ID NO:6), or antisense (Oligo 164, SEQ ID NO:1) oligonucleotides or control oligonucleotide (Oligo 169, SEQ ID NO:7); Oligo 168 (SEQ ID NO:5); Oligo 188, (SEQ ID NO:3) as shown in Table 1 (1 mg per 0.1 ml saline per mouse), or saline (0.1 ml per mouse), was injected s.c. into the right flank of mice when tumor size reached 80 to 100 mg, about 1 week after cell inoculation. Tumor volumes were obtained from daily measurement of the longest and shortest diameters and calculation by the formula, 4/3πr^3 where r=(length+width)/4. At each indicated time, two animals from the control and antisense-treated groups were killed, and tumors were removed and weighed.

A value given as a limit tells only on which side of the number the result lay.

For `CC(=O)O[C@@]12CO[C@@H]1C[C@H](O)[C@@]1(C)C(=O)[C@H](O)C3=C(C)[C@@H](OC(=O)[C@H](O)[C@@H](NC(=O)OC(C)(C)C)c4ccccc4)C[C@@](O)([C@@H](OC(=O)c4ccccc4)[C@H]21)C3(C)C` [docetaxel, reference compound], the inhibition (in general, the drop in the measured response relative to a control, in per cent) at 10 pM was less than 12% in data set [1] (Homo sapiens, ZR-75-1, docetaxel 0.01 nM alone (Examples 13, 14)) and less than 15% in data set [1] (Homo sapiens, ZR-75-1, docetaxel 0.01 nM alone (Examples 21, 22)). In data set [1] (Homo sapiens, ZR-75-1, docetaxel 0.03 nM alone (Examples 21, 22)), this molecule displayed an inhibition at 30 pM of roughly 40%. In data set [1] (Homo sapiens, ZR-75-1, docetaxel 0.1 nM alone (Examples 21, 22)), this molecule returned an inhibition at 0.0001 µM of roughly 72%. The inhibition at 0.0003 µM in data set [1] (Homo sapiens, ZR-75-1, docetaxel 0.3 nM alone (Examples 21, 22)) was roughly 85%. For the same molecule, in data set [1] (docetaxel alone, doses ranging between 0.01 and 0.3 nM, maximum), the growth inhibition entry is “up to 80%”.

Take `CC(=O)O[C@H]1C(=O)[C@@]2(C)[C@H]([C@H](OC(=O)c3ccccc3)[C@]3(O)C[C@H](OC(=O)[C@H](O)[C@@H](NC(=O)c4ccccc4)c4ccccc4)C(C)=C1C3(C)C)[C@]1(OC(C)=O)CO[C@@H]1C[C@@H]2O` [paclitaxel, reference compound]: the “expression of AR” value with AR is “Unlike taxol, treatment with HYB 165 inhibited the expression of TGF α and AR”. This molecule returned an inhibition at 0.001 µM in data set [2] (Homo sapiens, paclitaxel 1 nM alone) of less than 5%. This molecule returned an inhibition at 0.005 µM in data set [2] (Homo sapiens, paclitaxel 5 nM alone) of roughly 20%. The molecule also displayed an inhibition at 0.01 µM in data set [2] (Homo sapiens, paclitaxel 10 nM alone) of roughly 58%. In addition, the growth inhibition entry in data set [2] (paclitaxel alone, doses ranging between 0.1 and 10 nM, maximum) was “up to 60%”. For the same molecule, the “expression of TGFα” value with TGFα was “Unlike taxol, treatment with HYB 165 inhibited the expression of TGF α and AR”. For the same molecule, in data set [3] (three cycles (taxol 20 mg/kg/dose i.p.; MBO 10 mg/kg/dose p.o.), FIG. 17A), the tumor growth entry is listed as “inhibited tumor growth”. Besides, in data set [3] (three cycles, FIG. 17B), the survival time result is “slight increase in survival time”. Further, the p27 expression entry with p27 is given as “Unlike taxol, HYB 165 alone is able to increase p27 expression”. Further, in data set [4], the “inhibition of staining (microvessel count)” value is on record as “over 60%”.

Take “Oligo 166: Inverted hybrid antisense 18-mer GCG TGC CUC CUC ACT GGC, SEQ ID NO:6 (antisense GCGTGCCUCCUCACTGGC; inverted hybrid: 2'-O-methyl ribonucleotide middle segment, DNA flanks, exact positions not given here)”: the “size of the tumor” value in data set [5] is listed as “smaller from three days after injection onward than the phosphorothioate oligonucleotide 164”.

“Oligo 168: Mismatched hybrid control GCG CGC CTC CTC GCU GGC, SEQ ID NO:5 (GCGCGCCTCCTCGCUGGC; hybrid: 2'-O-methyl ribonucleotide ends, DNA middle, exact positions not given here) [reference compound]”: the “size of the tumor” value in data set [5] was “little ability to keep tumor size at a minimum relative to the hybrid and inverted hybrid oligonucleotides”.
